In patent US20200030214A1, “USE OF COMPATIBLE SOLUTES” (MERCK PATENT GMBH, priority 2017, published 2020):

What was measured:
Format in all cases: cell-based
HaCaT keratinocytes [1] = assay: Protective effect against UVA induced carbonylated protein formation (SDS-PAGE, fluorescent labelling); settings: 24 h, UVA 365 nm 33 J/cm^2, in comparison to the control, FIGS. 3 and 4
Method: (§1) HaCaT keratinocytes are cultured in calcium-free DMEM (Dulbecco's Modified Eagle Medium), with 10% SVF, at 37° C. and humid atmosphere, supplemented with 5% CO2 for 24 h.
(§2) After this initial time period the cell cultures are treated with the respective active compound. A non treated sample is used as reference.
(§3) The following active compounds are used in the above method: • Ectoin (Merck KGaA, Germany) 0.5% w/v dissolved in culture medium. • Ectoin (Merck KGaA, Germany) 0.3% w/v dissolved in culture medium • N-acetyl-cysteine (NAC) (Sigma-Aldrich) 2.5 mM, as internal reference
(§4) After a time period of 24 h, stress is induced in the samples by treatment with blue light irradiation (460 nm) or UVA irradiation (365 nm). In addition, samples not treated with an active compound are left non-irradiated for comparison.
UVA irradiation (365 nm): • Source: LED • Irradiance: 50 mW/cm^2 • Dose: 33 J/cm^2 (i.e. less intense than 15 minutes at noon in the middle European sunlight) • Irradiation time: 11 min […]
(§5) In situ detection of carbonylated proteins: After thawing of the samples, protein extraction from cells is performed using OxiProteomics' validated protocols. Extracted proteins are solubilized and quantified by the Bradford method (Bradford, 1976, Anal. Biochem., 72, 248) using calibrated BSA as standard. […] Quantification is obtained from each sample, both for carbonylated and total proteins.

HaCaT keratinocytes [2] = assay: Protective effect against blue light induced carbonylated protein formation (SDS-PAGE, fluorescent labelling); settings: 24 h, blue light 460 nm 35 J/cm^2, FIGS. 5 and 6
Method: as §1, §2, §3, §4
Blue light irradiation (460 nm): • Source: LED • Irradiance: 53 mW/cm^2 • Dose: 35 J/cm^2 (corresponding to the emission of a computer screen during 8 h/d for 3 days) • Irradiation time: 11 min […]
as §5

HaCaT keratinocytes [3] = assay: Effect of ectoin on suppression of intracellular carbonylated protein accumulation induced by oleic acid; settings: 100 mM ectoin pre-treatment for 24 h, then 200 μM oleic acid for 48 h; FIG. 2
Method: The effect of ectoin on carbonylated protein accumulation is analysed. In order to induce Hsp70, HaCaT keratinocytes are cultured with 100 mM ectoin (Merck KGaA, Germany) for 24 h. Cells are cultured with oleic acid for further 48 hours, and CP levels are determined. In this examination, 200 μM oleic acid is used to evaluate the effect of ectoin on CP accumulation in the cells. HaCaT keratinocytes are cultured in DMEM containing 5% FBS and 100 mM ectoin for 24 h. Cells are further cultured with DMEM containing 200 μM oleic acid for 48 h. After fixing with cold methanol for 5 min, cells are reacted with 20 μmol/L FTSC in 0.1 mol/L MES-Na buffer (pH 5.5) at room temperature for 1 h. Fluorescence intensities derived from CPs are measured at Ex/Em 492 nm/516 nm with a fluorescence microplate reader, TECAN SPARK 10M (Mannedorf, Switzerland). Numbers of cells are determined by measuring fluorescence intensities of nuclei stained with Hoechst 33342. Intracellular CP levels are calculated as fluorescence intensity of FTSC per fluorescence intensities of nuclei.

HaCaT keratinocytes [4] = assay: Intracellular carbonylated protein (CP) levels in HaCaT keratinocytes cultured with oleic acid (FTSC fluorescence); settings: HaCaT keratinocytes cultured in DMEM containing oleic acid at several concentrations for 48 h; FIG. 1
Method: Protein carbonylation is initiated by reactive aldehyde compounds which are synthesized by lipid peroxidation. Since skin pores are always immersed by sebum, oleic acid which is one of the sebum components, is used as a source of intracellular synthesis of reactive aldehyde compounds to establish cells with accumulated carbonylated proteins.
Cell culture: HaCaT keratinocytes are cultured in Dulbeco's modified Eagle's medium (DMEM) (Nissui, Tokyo, Japan) supplemented with 5% fetal bovine serum (FBS) (Thermofisher, Waltham, Calif., USA) at 37° C. in 5% CO2 and 95% air.
For this example HaCaT keratinocytes are cultured in DMEM containing oleic acid at several concentrations for 48 h. After fixing with cold methanol for 5 min, cells are reacted with 20 μmol/L FTSC (Sigma-Aldrich, St. Louis, Mo., USA in 0.1 mol/L MES-Na buffer (pH 5.5) at room temperature for 1 h. Fluorescence intensities derived from CPs are measured at Ex/Em 492 nm/516 nm with a fluorescence microplate reader, TECAN SPARK 10M (Mannedorf, Switzerland). Numbers of cells are determined by measuring fluorescence intensities of nuclei stained with Hoechst 33342 (Sigma-Aldrich (St. Louis, Mo., USA)). Intracellular CP levels are calculated as fluorescence intensity of FTSC per fluorescence intensities of nuclei.

## CC1=N[C@H](C(=O)O)CCN1 [ectoin, (S)-1,4,5,6-tetrahydro-2-methyl-4-pyrimidincarboxylic acid]
HaCaT keratinocytes [1]; ectoin 0.3% w/v
  protective effect against UVA induced protein carbonylation: significant protective effect
HaCaT keratinocytes [1]; ectoin 0.5% w/v
  protective effect against UVA induced protein carbonylation: No significant comparison
HaCaT keratinocytes [2]; ectoin 0.3% w/v
  protective effect against blue light induced protein carbonylation: significant protective effect
HaCaT keratinocytes [2]; ectoin 0.5% w/v
  protective effect against blue light induced protein carbonylation: significant protective effect
HaCaT keratinocytes [3]
  CP accumulation through oleic acid: suppression of CP accumulation

## CCCCCCCC/C=C\CCCCCCCC(=O)O [oleic acid]
HaCaT keratinocytes [4]
  level of intracellular CPs: higher level of intracellular CPs
